Patent US8178506B2, “Oligomeric compounds and compositions for use in modulation of small non-coding RNAs” (Regulus Therapeutics Inc., priority 2003, dated 2012)
In the oligonucleotide strings, read from the 5' end, every base follows the letter of its sugar. An asterisk marks phosphorothioate; unmarked linkages are phosphodiester. Other units and linkages are bracketed, terminal groups are in braces. A string of capitals states the bases alone. e = 2'-O-(2-methoxyethyl) (MOE); [5mC] = 5-methylcytosine; d = 2'-deoxy (DNA)

Tests used:
IL-6 mRNA = IL-6 mRNA in LPS-activated primary murine macrophages; type: cell-based, mouse; conditions: average of 3 treatments
Protocol: To investigate the role of miRNAs in the immune response, oligomeric compounds of the present invention targeting miRNAs were tested for their effects upon lipopolysaccharide (LPS)-activated primary murine macrophages. Macrophages participate in the immune response, for example, in the recognition and phagocytosis of microorganisms, including bacteria. Interferon-gamma (IFN-gamma) released by helper T cells is one type of signal required for macrophage activation, and LPS can serve as an additional stimulus. LPS is a component of the gram-negative bacterial cell wall and acts as an agonist for toll-like receptor 4 (TLR4), the primary LPS receptor expressed by macrophages. The proinflammatory cytokines interleukin-12 (IL-12) and interleukin-6 (IL-6) are induced by LPS treatment of macrophages, thus the expression of the mRNAs encoding these cytokines was used to evaluate the response of macrophages to LPS following treatment with oligomeric compounds targeting miRNAs.
Macrophages were isolated as follows. Female C57B1/6 mice (Charles River Laboratories, Wilmington, Mass.) were injected intraperitoneally with 1 ml 3% thioglycollate broth (Sigma-Aldrich, St. Louis, Mo.), and peritoneal macrophage cells were isolated by peritoneal lavage 4 days later. The cells were plated in 96-well plates at 40,000 cells/well for one hour in serum-free RPMI adjusted to contain 10 mM HEPES (Invitrogen Life Technologies, Carlsbad, Calif.), allowed to adhere, then non-adherent cells were washed away and the media was replaced with RPMI containing 10 mM HEPES, 10% FBS and penicillin/streptomycin (“complete” RPMI; Invitrogen Life Technologies, Carlsbad, Calif.).
Oligomeric compounds were introduced into the cells using the non-liposomal transfection reagent FuGENE 6 Transfection Reagent (Roche Diagnostics Corp., Indianapolis, Ind.). Oligomeric compound was mixed with FuGENE 6 in 1 mL of serum-free RPMI to achieve a concentration of 10 μL FuGENE per 1000 nM oligomeric compound. The oligomeric compound/FuGENE complex was allowed to form at room temperature for 20 minutes. This mixture was diluted to the desired concentration of oligomeric compound by the addition of the appropriate volume of complete RPMI. The final ratio of FuGENE 6 to oligomeric compound was 1 μL of FuGENE 6 per 100 nM oligomeric compound. A volume of 100 μL of oligomeric compound/FuGENE/RPMI was added to each well of the 96-well plate in which the macrophages were cultured. Each oligomeric compound treatment was repeated in triplicate.
Following oligomeric compound treatment, cells were stimultated with LPS. Cells were cultured in the presence of the transfection complex for approximately 24 to 28 hours at 37° C. and 5% CO2, after which the medium containing the transfection complex was removed from the cells, and complete RPMI containing 100 ng/mL LPS (Sigma-Aldrich Corp., St. Louis, Mo.) was added to the cells for a period of approximately 24 hours. Control samples included (1) cells receiving no oligomeric compound, stimulated with LPS and (2) cells receiving neither oligomeric compound nor LPS treatment.
In another embodiment, following oligomeric compound treatment, cells were first activated by IFN-gamma, to amplify the response to LPS. Cells were cultured in the presence of the transfection complex for approximately 24 hours at 37° C. and 5% CO2, at which point the medium containing the transfection complex was removed from the cells, and complete RPMI containing 100 ng/mL recombinant mouse IFN-gamma (R&D Systems, Minneapolis, Minn.) was added to the cells. After the 4 hour treatment with INF-gamma, cells were treated with 100 ng/mL LPS for approximately 24 hours. Control samples included (1) cells receiving no oligomeric compound, stimulated with LPS and (2) cells receiving neither oligomeric compound nor LPS treatment. […]

mir-21 miRNA = assay: pGL3-mir-21 sensor luciferase assay in HeLa cells; type: cell-based, human
Text: In order to assess the ability of miRNAs to bind predicted miRNA binding sites and regulate the expression of the luciferase reporter, in some embodiments, expression systems based on the pGL3-Control (Promega Corp., Madison Wis.) reporter vector and comprising either a mir-15a, mir-21, or a mir-23b miRNA binding site were developed and used in transient transfections of HeLa cells to determine whether the endogenous mir-15a, mir-21, or mir-23b miRNAs, respectively, could repress luciferase reporter gene expression.
The pGL3-mir-21 sensor plasmid was created by cloning the sequence ([…]; SEQ ID NO: 335), representing a sequence complementary to the mir-21 miRNA, into the Xba site of the pGL3-Control plasmid, placing the potential miRNA-binding site in the 3′UTR of the luciferase reporter. This reporter plasmid was used to transfect HeLa cells and it was observed that the endogenous mir-21 miRNA was able to inhibit luciferase expression from the pGL3-mir-21 sensor plasmid. Thus, to further evaluate the ability of the mir-21 miRNA to bind this target site encoded by the pGL3-mir-21 sensor plasmid, and to assess the ability of oligomeric compounds to interfere with mir-21-mediated silencing, pGL3-mir-21 sensor-expressing HeLa cells were treated with varying concentrations (10 nM or 50 nM) of the following oligomeric compounds: ISIS Number 327917 (SEQ ID NO: 335), a phosphorothioate uniform 2′-MOE oligomeric compound; ISIS Number 338697 ([…]; herein incorporated as SEQ ID NO: 524), a uniform 2′-MOE oligomeric compound targeting the mir-21 pri-miRNA molecule; and ISIS Number 328415 (SEQ ID NO: 524), a 2′-MOE 5-10-5 gapmer oligomeric compound targeting the mir-21 pri-miRNA. The uniform 2′-MOE phosphorothioate oligomeric compound ISIS Number 327901 (SEQ ID NO: 319) targeting an unrelated miRNA (mir-143) was used as a negative control. The data are the average of three trials and are presented in Table 44 as percent untreated control (luciferase plasmid only, not treated with oligomeric compound) luciferase expression, normalized to pRL-CMV levels.
In one embodiment, the oligomeric compounds ISIS Number 327917 (SEQ ID NO: 335), the phosphorothioate uniform 2′-MOE targeting mature mir-21; ISIS Number 358768 (SEQ ID NO: 918), the uniform 2′-MOE targeting the mir-21 pri-miRNA which stimulated the largest increase in pri-miRNA expression levels by real time quantitative RT-PCR; and ISIS Number 345382 (SEQ ID NO: 335), the 5-10-7 phosphorothioate 2′-MOE gapmer targeting mature mir-21 were selected for dose response studies in HeLa cells using the luciferase reporter system described in Example 27. ISIS Number 342683 (SEQ ID NO: 790), representing the scrambled nucleotide sequence of an unrelated PTP1B antisense oligonucleotide, was used as a negative control. HeLa cells expressing the pGL3-mir-21 sensor plasmid (described in Example 27) were treated with 1.9, 5.5, 16.7, and 50 nM of these oligomeric compounds, to assess the ability of oligomeric compounds to interfere with endogenous mir-21-mediated silencing of the pGL3-mir-21 sensor plasmid. The data are presented in Table 50 as percent untreated control (luciferase plasmid only, not treated with oligomeric compound) luciferase expression, normalized to pRL-CMV levels.

IL-12 mRNA = IL-12 mRNA in LPS-activated primary murine macrophages; type: cell-based, mouse; conditions: LPS, average of 3 treatments
T47D cells = assay: Caspase-3 activity assay (apoptosis) in T47D cells; conditions: T47D cells, 200 nM, 48 hours, relative to untreated control
mir-21 pri-miRNA = mir-21 pri-miRNA expression in HeLa cells (real-time RT-PCR); type: cell-based, human; conditions: HeLa cells, 100 nM, real-time RT-PCR
Protocol: In one embodiment, the expression of mir-21 (noted to be expressed at high levels in HeLa cells) was assessed in cells treated with oligomeric compounds. Using the transfection methods previously described, HeLa cells were treated with 100 nM of the uniform 2′-MOE oligomeric compound ISIS Number 327917 (SEQ ID NO: 335) targeting the mir-21 mature miRNA. Total RNA was isolated by lysing cells in 1 mL TRIZOL™ (Invitrogen) using the manufacturer's recommended protocols. […] Real-time RT-PCR analysis was also performed on HeLa cells treated with ISIS 327917 using a primer/probe set specific for the mir-21 pri-miRNA molecule [forward primer=ISIS 339332 ([…]; herein incorporated as SEQ ID NO.: 911), reverse primer-ISIS 339333 (TCGACTGGTGTTGCCATGA; herein incorporated as SEQ ID NO.: 912), and probe=ISIS 339334 ([…]; herein incorporated as SEQ ID NO.: 913)]. Total RNA was quantified using RiboGreen™ RNA quantification reagent (Molecular Probes, Inc. Eugene, Oreg.), expression levels observed for the target were normalized to 5.8S rRNA, and values were expressed relative to an untreated control (UTC).
Using the real-time RT-PCR methods, the expression levels of the mir-21 pri-miRNA were compared in HeLa cells treated with this nested series of uniform 2′-MOE oligomeric compounds, targeting and spanning the entire length of the mir-21 pri-miRNA. ISIS Number 358768 (SEQ ID NO: 918) targets a region flanking the predicted 5′ Drosha cleavage site in the mir-21 pri-miRNA. ISIS Number 358777 (SEQ ID NO: 927) targets a region spanning the 3′ Drosha cleavage site in the mir-21 pri-miRNA. ISIS 358779 (SEQ ID NO: 929) targets a region flanking the predicted 3′ Drosha cleavage site in the mir-21 pri-miRNA. Additionally, oligomeric compounds ISIS 327917 (SEQ ID NO: 335), a uniform 2′-MOE compound targeting the mature mir-21 miRNA, and ISIS 345382 ([…]; SEQ ID NO: 335), a 5-10-7 phosphorothioate 2′-MOE gapmer targeting mir-21, were tested for comparison. Oligomeric compound ISIS 327863 ([…]; herein incorporated as SEQ ID NO: 936), a phosphorothioate 5-10-52′-MOE gapmer, was used as scrambled control. […] Total RNA was isolated by lysing cells in 1 mL TRIZOL™ (Invitrogen) using the manufacturer's recommended protocols. real-time RT-PCR analysis was performed using the primer/probe set specific for the mir-21 pri-miRNA molecule [forward primer=ISIS 339332 (SEQ ID NO.: 911), reverse primer-ISIS 339333 (SEQ ID NO.: 912), and probe=ISIS 339334 (SEQ ID NO.: 913)]. Total RNA was quantified using RiboGreen™ RNA quantification reagent (Molecular Probes, Inc. Eugene, Oreg.), expression levels observed for each target were normalized to 5.8S rRNA, and values were expressed relative to the untreated control (UTC). Effects on expression of the mir-21 pri-miRNA molecule resulting from treatment of HeLa cells with these uniform 2′-MOE oligomeric compounds is expressed as a percentage of RNA levels in untreated control cells.

[1] = Table 50, pGL3-mir-21 sensor-expressing HeLa cells, 1.9 nM, normalized to pRL-CMV
[2] = Table 50, pGL3-mir-21 sensor-expressing HeLa cells, 5.5 nM, normalized to pRL-CMV
[3] = Table 50, pGL3-mir-21 sensor-expressing HeLa cells, 16.7 nM, normalized to pRL-CMV
[4] = Table 50, pGL3-mir-21 sensor-expressing HeLa cells, 50 nM, normalized to pRL-CMV
[5] = Table 44, pGL3-mir-21 sensor-expressing HeLa cells, 10 nM
[6] = Table 44, pGL3-mir-21 sensor-expressing HeLa cells, 50 nM

342683 (antisense CCTTCCCTGAAGGTTCCTCCTT; scrambled control, further chemistry not given here) [compound 342683]
IL-6 mRNA expression, % UTC (IL-6 mRNA; 75 nM, +IFN): 115 % UTC
IL-6 mRNA expression, % UTC (IL-6 mRNA; 75 nM, −IFN): 135 % UTC
IL-6 mRNA expression, % UTC (IL-6 mRNA; 150 nM, +IFN): 86 % UTC
IL-6 mRNA expression, % UTC (IL-6 mRNA; 150 nM, −IFN): 161 % UTC
IL-6 mRNA expression, % UTC (IL-6 mRNA; 300 nM, +IFN): 110 % UTC
IL-6 mRNA expression, % UTC (IL-6 mRNA; 300 nM, −IFN): 156 % UTC
IL-6 mRNA expression, % UTC (IL-6 mRNA; 600 nM, +IFN): 149 % UTC
IL-6 mRNA expression, % UTC (IL-6 mRNA; 600 nM, −IFN): 311 % UTC
luciferase expression % UTC (mir-21 miRNA; [1]): 127 % UTC
luciferase expression % UTC (mir-21 miRNA; [2]): 171 % UTC
luciferase expression % UTC (mir-21 miRNA; [3]): 104 % UTC
luciferase expression % UTC (mir-21 miRNA; [4]): 108 % UTC
IL-12 mRNA expression, % UTC (IL-12 mRNA; 75 nM, +IFN): 92 % UTC
IL-12 mRNA expression, % UTC (IL-12 mRNA; 75 nM, −IFN): 121 % UTC
IL-12 mRNA expression, % UTC (IL-12 mRNA; 150 nM, +IFN): 76 % UTC
IL-12 mRNA expression, % UTC (IL-12 mRNA; 150 nM, −IFN): 165 % UTC
IL-12 mRNA expression, % UTC (IL-12 mRNA; 300 nM, +IFN): 65 % UTC
IL-12 mRNA expression, % UTC (IL-12 mRNA; 300 nM, −IFN): 147 % UTC
IL-12 mRNA expression, % UTC (IL-12 mRNA; 600 nM, +IFN): 64 % UTC
IL-12 mRNA expression, % UTC (IL-12 mRNA; 600 nM, −IFN): 130 % UTC

328415 (antisense eT*eG*e[5mC]*e[5mC]*eA*dT*dG*dA*dG*dA*dT*dT*d[5mC]*dA*dA*e[5mC]*eA*eG*eT*e[5mC]) [compound 328415]
Fold Increase over UTC (caspase activity) (T47D cells): 1.1
luciferase expression % UTC (mir-21 miRNA; [5]): 66.0 % UTC
luciferase expression % UTC (mir-21 miRNA; [6]): 104.4 % UTC

358768 (eA*eG*eG*eT*eG*eG*eT*eA*e[5mC]*eA*eG*e[5mC]*e[5mC]*eA*eT*eG*eG*eA*eG*eA) [compound 358768]
luciferase expression % UTC (mir-21 miRNA; [1]): 103 % UTC
luciferase expression % UTC (mir-21 miRNA; [2]): 163 % UTC
luciferase expression % UTC (mir-21 miRNA; [3]): 146 % UTC
luciferase expression % UTC (mir-21 miRNA; [4]): 118 % UTC
mir-21 pri-miRNA expression % UTC (mir-21 pri-miRNA): 987 % UTC

338697 (antisense TGCCATGAGATTCAACAGTC; all 2'-MOE, all phosphorothioate, methylation of C not given here) [compound 338697]
luciferase expression % UTC (mir-21 miRNA; [5]): 87.0 % UTC
luciferase expression % UTC (mir-21 miRNA; [6]): 84.8 % UTC
